The text below walks through data of patent US20240035033A1, “PREVENTION AND TREATMENT OF AGE-RELATED MACULAR DEGENERATION THROUGH SUPPRESSION OF CATHEPSIN S EXPRESSION” (CHUNG-ANG UNIVERSITY INDUSTRY-ACADEMIC COOPERATION …, priority 2022, published 2024).

Format in all cases: cell-based, human
Test [1] deals with C3a and C5a. The test is described as follows: immunofluorescence analysis of C3a and C5a expression in RPE cells. The note with it: siRNA 24 hours, Bay 1170-82 10 μM, control DMSO / control siRNA. The protocol:
In order to confirm the inhibitory effect of complement activity in the case of treatment with an inhibitor of cathepsin S expression or activity, RPE cells were treated with cathepsin S siRNA (CTSS siRNA, CTSSiRNA) and then the effect of inhibiting complement activity was analyzed. At this time, NF-κB inhibitor were treated as a comparison group. Specifically, RPE cells were treated with control siRNA or CTSS siRNA for 24 hours in the presence or absence of NF-κB inhibitor Bay 1170-82 (10 μM), respectively. After that, immunofluorescence analysis was performed for the expression of C3a and C5a in RPE cells. Experimental methods and conditions were applied in the same manner as in Example 3.

The subject of test [2] is PPARγ and VEGFA/AKT. The test is described as follows: western blot of angiogenic factors in RPE cells. The note with it: RPE cells treated with H2O2. The source says: (§1) In the case of treatment with an inhibitor of cathepsin S expression or activity, it was confirmed whether angiogenesis in RPE cells induced by oxidative stress was reduced. Specifically, the expression levels of PPARγ and VEGFA/AKT, which play key roles in neovascularization, differentiation, migration, and proliferation, were confirmed through western blotting experiments, and the experimental methods and conditions were applied in the same manner as in Example 2. In addition, to confirm the presence or absence of cell tube formation, HUVECs (1×10^5) were treated on a Matrigel-coated 96-well-plate with reduced growth factors, and then the cells were treated with a conditioned medium (CM) for 2 hours by treating RPE cells with CTSS siRNA and H2O2 at 37° C. for 48 hours, and images were analyzed with an inverted fluorescence microscope.
(A western blot detects proteins with antibodies after separation by electrophoresis.)

Test [3] relates to ARPE-19 cells. The test is described as follows: MTT viability of RPE cells according to H2O2 treatment. The note with it: H2O2 6.25-100 μM, 48 hours, compared to the control. As to the method:
In order to confirm the decrease in viability of retinal pigment epithelium cells (RPE cells, hereinafter referred to as RPE cells) according to H2O2 treatment, MTT analysis was performed, and the viability and iNOS expression of RPE cells according to H2O2 treatment were confirmed.
First, a human retinal-pigmented epithelial cell line (hereinafter referred to as ARPE-19 cells (ATCC, Manassas, VA, USA)) was used and inoculated into 96-well plates and cultured for 24 hours. Thereafter, the cells were treated with 6.25 μM 12.5 μM, 25 μM, 50 μM, and 100 μM H2O2 for 48 hours, a 3-(4,5-dimethylthiazol-2-yl)-2,5-diphenyl-tetrazolium bromide (MTT) solution was added to the medium, and the cells were cultured at 37° C. for 4 hours. The MTT-comprising medium was removed and the cells were lysed in 50 μl of DMSO. An optical density at 540 nm was confirmed using a microplate spectrophotometer (SpectraMax; Molecular Devices, Sunnyvale, CA, USA), and cell viability was determined by repeating each experiment three times to calculate an average value.

Test [4] relates to iNOS. The test is described as follows: iNOS expression in RPE cells according to H2O2 treatment (RT-PCR, western blot). The protocol: In addition, the expression level of iNOS expressed in RPE cells according to H2O2 treatment was analyzed. Specifically, after RPE cells were treated with 10 μM, 50 μM, and 100 μM H2O2, relative iNOS mRNA expression levels were confirmed, and western blot experiments were performed. Total RNA was prepared using a Ribospin™ II kit from GeneAll Biotechnology (Seoul, South Korea) according to the manufacturer's recommendations. Total RNA (1 μg) was reverse transcribed into first-strand cDNA using an iScript™ cDNA Synthesis kit (Bio-Rad Laboratories, Inc., California, USA) according to the manufacturer's instructions, real-time reverse transcription-polymerase chain reaction (RT-PCR) was performed using a Thermal Cycler CFX96™ Real-Time PCR System (Bio-Rad Laboratories, USA), and each experiment was repeated three times to derive the results. RPE cells were washed with ice-cold PBS and then extracted with a protein lysis buffer (Intron Biotechnology, Seoul, South Korea). Protein samples of cell lysates were mixed with an equal volume of 2×SDS sample buffer, denatured by heating for 5 minutes and then separated on a 10% SDS-PAGE gel. After electrophoresis, proteins were transferred to a polyvinylidene difluoride membrane, and the membrane was blocked and washed using 5% BSA for 40 minutes. […]

The test system of test [5] is cathepsin S (CTSS). The test is described as follows: cathepsin S expression in RPE cells under oxidative stress (mRNA, western blot). The protocol: To confirm the expression of cathepsin S (CTSS) in RPE cells under oxidative stress conditions, RPE cells were treated with H2O2 and the expression of cathepsin S (CTSS) was determined. Specifically, the cells was treated with 10 μM and 50 μM H2O2, cathepsin S mRNA expression level analysis and western blot experiments were performed in order to confirm the expression of cathepsin S, and the same experimental method and conditions as in Example 1 were applied, except that cathepsin S-specific antibodies were used.

In test [6] the test system is cathepsin S (CTSS). The test is described as follows: immunofluorescence analysis of cathepsin S in RPE cells. The note with it: H2O2 50 μM, 48 hours. The protocol: Immunofluorescence analysis was performed to confirm the suppression of cathepsin S in cathepsin S knockdown RPE cells of Example 3-1. Specifically, after cells prepared in the same manner as in the mRNA expression level analysis were washed twice with sterile PBS and fixed with 4% paraformaldehyde at room temperature for 30 minutes, the fixation was stopped by washing the cells three times with PBS. The cells were permeabilized with PBS comprising 0.01% Triton X-100 […]. After blocking for 1 hour, the insert membrane was removed using a scalpel and placed on Parafilm prior to being incubated with a primary antibody (depending on the protein of interest). All primary antibodies were diluted 1:50 in 5% BSA and PBS and used, and cultured at 4° C. overnight. Thereafter, the cells were washed three times with PBS and a secondary FITC- or TRITC-conjugated antibody was diluted 1:50 and applied at room temperature for 1 hour. After 1 mg/ml DAPI was added 10 minutes before removing a secondary antibody to stain the nuclei, the cells were coated with a mounting medium and a glass coverslip was placed on top. The membrane/coverslip was fixed to the glass slide using a mounting medium, and cells were observed under a fluorescence microscope (Leica DFC7000T).

Test [7] relates to HUVECs. The test is described as follows: tube formation of HUVECs treated with conditioned medium of RPE cells. The note with it: conditioned medium of H2O2-treated control RPE cells, 2 hours.
Text: as §1

Turning to `Cc1ccc(S(=O)(=O)/C=C/C#N)cc1` [Bay 1170-82], in test [1], the “expression of C3a (immunofluorescence)” value was “suppressed” and the “expression of C5a (immunofluorescence)” value was “suppressed”.

As for `OO` [H2O2], in test [2], the “expression level of PPARγ (western blot)” value is “increased” and the “expression level of VEGFA/AKT (p-AKT) (western blot)” value is reported as “increased”. Moreover, the “cell viability (MTT)” value in test [3] is “decrease in cell viability”. In addition, in test [4] (RPE cells, 50 μM and 100 μM H2O2), the “relative iNOS mRNA levels” value is on record as “increased”. Also, the “iNOS protein (western blot)” value in test [4] (RPE cells, 10, 50, 100 μM H2O2) was “increased in a H2O2 concentration-dependent manner”. For the same compound, the “cathepsin S protein band (western blot)” value in test [5] (10 μM and 50 μM H2O2) was “appeared thick and dark”. The “relative mRNA level of cathepsin S” value in test [5] (10 μM and 50 μM H2O2, vs control) is recorded as “higher than that of the control”. The “cathepsin S expression (red fluorescence)” value in test [6] is recorded as “significantly increased”. The tube formation result in test [7] is on record as “marked increase in tube formation”.
